Data on 14 compounds can be found in patent US8173684B2, “Pyridone derivatives as p38α MAPK inhibitors” (Astellas Pharma Inc., priority 2007, dated 2012).

This experiment relates to TNF-α production in THP-1 cells. Nature of the experiment: Test 1: Inhibition of TNF-α production in THP-1 cells. The format is cell-based. The settings on record: Homo sapiens; 100 nM test compound; LPS (10 μg/mL) stimulated THP-1 cells, 20 hr; TNF-α in supernatant vs 0.1% DMSO control. The protocol:
Test 1: Inhibition of TNF-α Production in THP-1 Cells
THP-1 cells, a human monocytic cell line, were maintained in RPMI 1640 (Sigma R8758) supplemented with penicillin (50 U/mL), streptomycin (50 μg/mL) and 10% fetal bovine serum (Moregate BioTech.) at 37° C., 5% CO2 in a humidified incubator. Initial stock solutions of test compounds were made in DMSO. All cells, reagents and test compounds were diluted into culture media. THP-1 cells (1×10^5 cells/well final) and lipopolysaccharide (LPS; 10 μg/mL final; Sigma L-4005, from E. coli serotype 0.55:B5) were added to 96 well polypropylene culture plates (Sumilon, MS-8196F5; sterile) containing test compound or 0.1% DMSO vehicle. The cell mixture was incubated for 20 hr in a humidified incubator at 37° C., 5% CO2. The culture supernatants were harvested and TNF-α levels from LPS stimulated cells in the presence of 100 nM test compound was calculated compared with control cells stimulated in the presence of 0.1% DMSO.
`O=C(Nc1cc(C(=O)NC2CC2)ccc1Cl)c1ccc(=O)n(-c2c(F)cccc2Cl)c1` [Example 16, N-{2-Chloro-5-[(cyclopropylamino)carbonyl]phenyl}-1-(2-chloro-6-fluorophenyl)-6-oxo-1,6-dihydro-3-pyridinecarboxamide] returned an inhibition at 0.1 µM of 72%.
With `Cc1ccc(NC(=O)C2CC2)cc1NC(=O)c1ccc(=O)n(-c2c(Cl)cccc2Cl)c1` [Example 25, N-{5-[(cyclopropylcarbonyl)amino]-2-methylphenyl}-1-(2,6-dichlorophenyl)-6-oxo-1,6-dihydro-3-pyridinecarboxamide], at 0.1 µM the inhibition was 70%.
As for `O=C(Nc1ccon1)c1ccc(Cl)c(NC(=O)c2ccc(=O)n(-c3c(Cl)cccc3Cl)c2)c1` [Example 3, N-{2-Chloro-5-[(isoxazol-3-ylamino)carbonyl]phenyl}-1-(2,6-dichlorophenyl)-6-oxo-1,6-dihydro-3-pyridinecarboxamide], the figure is 94%; as for `Cn1ccc(NC(=O)c2ccc(Cl)c(NC(=O)c3ccc(=O)n(-c4c(Cl)cccc4Cl)c3)c2)n1` [Example 5, N-{2-Chloro-5-[(1-methyl-1H-pyrazol-3-ylamino)carbonyl]phenyl}-1-(2,6-dichlorophenyl)-6-oxo-1,6-dihydro-3-pyridinecarboxamide], 75%; as for `Cc1ccc(C(=O)NC2CC2)cc1NC(=O)c1ccc(=O)n(-c2c(F)cccc2F)c1` [Example 22, N-{5-[(Cyclopropylamino)carbonyl]-2-methylphenyl}-1-(2,6-difluorophenyl)-6-oxo-1,6-dihydro-3-pyridinecarboxamide], 97%.
The same measure for `CONC(=O)c1ccc(Cl)c(NC(=O)c2ccc(=O)n(-c3c(Cl)cccc3Cl)c2)c1` [Example 2, N-{2-Chloro-5-[(methoxyamino)carbonyl]phenyl}-1-(2,6-dichlorophenyl)-6-oxo-1,6-dihydro-3-pyridinecarboxamide]: 84%; for `O=C(Nc1cc(C(=O)NC2CC2)ccc1Cl)c1ccc(=O)n(-c2c(Cl)cccc2Cl)c1` [Example 1, N-{2-chloro-5-[(cyclopropylamino)carbonyl]phenyl}-1-(2,6-dichlorophenyl)-6-oxo-1,6-dihydro-3-pyridinecarboxamide]: 77%; for `Cc1ccc(C(=O)NC2CC2)cc1NC(=O)c1ccc(=O)n(-c2c(Cl)cccc2Cl)c1` [Example 18, N-{5-[(cyclopropylamino)carbonyl]-2-methylphenyl}-1-(2,6-dichlorophenyl)-6-oxo-1,6-dihydro-3-pyridinecarboxamide]: 78%.
With `Cc1ccc(-n2nc(C(C)(C)C)cc2NC(=O)Nc2ccc(C)c(NC(=O)c3ccc(=O)n(-c4c(Cl)cccc4Cl)c3)c2)cc1` [Example 26, N-[5-[({[3-tert-butyl-1-(4-methylphenyl)-1H-pyrazol-5-yl]amino]carbonyl)amino]-2-methylphenyl}-1-(2,6-dichlorophenyl)-6-oxo-1,6-dihydro-3-pyridinecarboxamide], testing at 0.1 µM gave an inhibition of 68%.
The compound `Cc1ccc(C(=O)NC2CC2)cc1NC(=O)c1ccc(=O)n(C(C)(C)C)c1` [Example 20, N-{5-[(cyclopropylamino)carbonyl]-2-methylphenyl}-1-tert-butyl-6-oxo-1,6-dihydro-3-pyridinecarboxamide] gave an inhibition at 0.1 µM of 85%.
As for `Cc1ccc(C(=O)NC2CC2)cc1NC(=O)c1ccc(=O)n(C(C)c2ccccc2)c1` (centres unmarked) [Example 24, N-{5-[(Cyclopropylamino)carbonyl]-2-methylphenyl}-1-(1-phenylethyl)-6-oxo-1,6-dihydro-3-pyridinecarboxamide], the inhibition at 0.1 µM amounted to 83%.
Take `O=C(Nc1cc(C(=O)NC2CC2)ccc1Cl)c1ccc(=O)n(-c2cccc(F)c2F)c1` [Example 17, N-{2-Chloro-5-[(cyclopropylamino)carbonyl]phenyl}-1-(2,3-difluorophenyl)-6-oxo-1,6-dihydro-3-pyridinecarboxamide]: the inhibition at 0.1 µM was found to be 75%.
Regarding `Cn1nccc1NC(=O)c1ccc(Cl)c(NC(=O)c2ccc(=O)n(-c3c(Cl)cccc3Cl)c2)c1` [Example 6, N-{2-Chloro-5-[(1-methyl-1H-pyrazol-5-ylamino)carbonyl]phenyl}-1-(2,6-dichlorophenyl)-6-oxo-1,6-dihydro-3-pyridinecarboxamide], 0.1 µM produced 82% inhibition.
As for `O=C(Nc1cc(C(=O)NC2CC2)ccc1Br)c1ccc(=O)n(-c2c(F)cccc2F)c1` [Example 15, N-{2-Bromo-5-[(cyclopropylamino)carbonyl]phenyl}-1-(2,6-difluorophenyl)-6-oxo-1,6-dihydro-3-pyridinecarboxamide], the figure is 69%.

What is called inhibition is how much of the control response was suppressed.
